In patent US9193729B2, “Inhibiting transient receptor potential ion channel TRPA1” (Cubist Pharmaceuticals, Inc., priority 2011, dated 2015):

Experiments:
[1] = test system: formalin-induced pain behavior; test: Formalin-induced pain behavior in vivo rodent model; parameters: species or system rat; conditions: i.p. administration, in words
Source text: The data shown in Tables 3a, 3b, and 3c and FIG. 2 were obtained by administering a pharmaceutical composition comprising the compound of Formula (Ia) to rodents in the formalin-induced pain duration at various doses according to Example 5. Specifically, the data in Tables 3a, 3b, and 3c and FIG. 2 were obtained by intraperitoneal (i.p.) administration of compositions containing different concentrations of the compound of Formula (Ia), a comparator composition containing recited amounts of the comparator compound (e.g., 150 mg/kg of the comparator compound of Formula (II) in Table 3a) and a control composition containing the vehicle (e.g., without the compound of Formula (Ia) or a comparator compound).
The compound of Formula (Ia) and the comparator compounds of Formula (II) and Formula (III) were tested in the formalin-induced pain test reported by Dubuisson et al., Pain 1977 December; 4(2):161-74 (incorporated herein by reference in its entirety). Dubuisson et al. (1977) describe a method for assessing pain and analgesia in rats and cats. Briefly, dilute formalin (50 μL of 3% formalin) is injected into the plantar surface of the hind paw. […] The individual responsible for counting the pain behaviors in a particular study is blinded to the treatment groups.
Rats were treated with the HCl salt of Compound (Ia) at various doses (3, 10, 30, and 50 mg/kg, IP) or with the vehicle (IP).

[2] = test system: serum biomarkers of hepatotoxicity; test: Hepatotoxicity serum biomarker study in dogs, oral dose; type: in vivo, dog; conditions: for ALT level elevation: single PO dose of 50 mg/kg
Description: The compound of Formula (Ia) was orally dosed to […] at dose levels of 5, 15 or 50 mg/kg using 30% Sulfobutylether β-cyclodextrin as the vehicle for assessment of safety as measured via serum chemistry biomarkers of hepatotoxicity or bile duct injury FIG. 5A, showing measurements of alanine aminotranferease [ALT], aspartate aminotranferease [AST], alkaline phosphatase [ALP] and gamma-glutamyl transferase [GGT] in the dogs at each dose level (each bar represents a measurement from 1 dog in the study). […] For example, the ALT levels were elevated up to about 60-fold in male dogs and up to about 130-fold in female beagle dogs following a single PO dose of 50 mg/kg.

[3] = test system: female rats; test: 7-day i.p. repeat dose screening toxicity study; type: in vivo, rat; conditions: rats, 50 mg/kg/day i.p. for 7 consecutive days
Description: The compound of Formula (Ia) was evaluated in a 7-day repeat dose screening toxicity study in female rats. In order to maximize systemic exposure, rats were administered compound of Formula (Ia) i.p. at 50 mg/kg/day for 7 consecutive days, to obtain the results shown in FIG. 6. Clinical chemistry parameters were evaluated on Days 3 and 8. Histopathology was performed on select organs including the liver, kidney, spleen, and lung.

[4] = biological target: hTRPA1 (Homo sapiens, UniProt O75762); test: Whole-cell patch clamp inhibition of hTRPA1; type: cell-based; conditions: same procedure as Example 3; species not given; read-out: IC50 in Patch Clamp Assay, TRPA1
Sequence of hTRPA1 (O75762 whole entry): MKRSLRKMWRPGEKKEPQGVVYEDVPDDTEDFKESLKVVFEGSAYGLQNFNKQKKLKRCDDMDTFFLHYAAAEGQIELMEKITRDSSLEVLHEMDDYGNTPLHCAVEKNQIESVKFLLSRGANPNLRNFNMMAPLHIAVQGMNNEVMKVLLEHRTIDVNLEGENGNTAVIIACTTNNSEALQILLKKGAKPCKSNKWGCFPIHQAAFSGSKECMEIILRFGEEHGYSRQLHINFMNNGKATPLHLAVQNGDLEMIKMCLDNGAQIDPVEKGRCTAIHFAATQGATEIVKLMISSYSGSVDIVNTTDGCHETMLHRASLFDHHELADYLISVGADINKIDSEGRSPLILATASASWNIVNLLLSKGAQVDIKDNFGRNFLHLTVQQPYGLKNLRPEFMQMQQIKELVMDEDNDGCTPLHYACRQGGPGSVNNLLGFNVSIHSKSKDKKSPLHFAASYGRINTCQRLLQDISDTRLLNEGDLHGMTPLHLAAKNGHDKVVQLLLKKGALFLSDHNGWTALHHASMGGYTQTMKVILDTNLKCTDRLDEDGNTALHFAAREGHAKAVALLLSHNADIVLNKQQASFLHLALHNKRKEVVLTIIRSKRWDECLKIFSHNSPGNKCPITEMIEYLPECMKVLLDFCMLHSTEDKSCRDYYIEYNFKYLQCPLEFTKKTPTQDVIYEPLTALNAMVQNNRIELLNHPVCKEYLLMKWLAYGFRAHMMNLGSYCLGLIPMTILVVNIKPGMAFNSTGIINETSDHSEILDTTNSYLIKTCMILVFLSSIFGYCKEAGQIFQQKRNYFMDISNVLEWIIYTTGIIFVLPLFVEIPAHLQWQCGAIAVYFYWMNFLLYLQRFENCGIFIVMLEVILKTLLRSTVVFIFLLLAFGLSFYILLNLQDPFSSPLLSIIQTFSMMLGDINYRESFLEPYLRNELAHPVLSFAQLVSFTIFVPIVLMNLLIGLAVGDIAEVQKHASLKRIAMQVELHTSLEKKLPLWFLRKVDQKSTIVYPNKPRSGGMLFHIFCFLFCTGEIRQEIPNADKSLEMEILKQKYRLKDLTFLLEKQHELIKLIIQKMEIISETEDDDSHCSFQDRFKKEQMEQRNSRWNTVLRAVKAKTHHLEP
Description: (§1) Data for TRPA1 inhibition and the selectivity of TRPA1 inhibition was obtained by this method for the compound of Formula (Ia) and included in Table 1 and Table 2. All currents were recorded in whole-cell configuration using EPC-9 and EPC-10 amplifiers and Patchmaster software (HEKA). […] The standard pipette solution consisted of 140 mM CsAsp, 10 mM EGTA, 10 mM HEPES, 2.27 mM MgCl2, 1.91 mM CaCl2, 4 mM MgATP, and 0.1-0.3 mM Na2GTP, with pH adjusted to 7.2 with CsOH. In addition, a solution containing 145 mM CsCl, 10 mM HEPES, 10 mM EGTA and 1 mM MgCl2 (pH 7.2 adjusted with CsOH) can be used. The standard bath solution contained 150 mM NaCl, 10 mM HEPES, 10 mM glucose, 4.5 mM KCl, 1 mM EGTA, 3 mM MgCl2, with pH adjusted to 7.4 with NaOH. In some instances, 2 mM CaCl2 was added in place of EGTA and the concentration of MgCl2 was reduced to 1 mM.
(§2) Data were collected either by continuous recordings at −60 mV or by applying voltage ramps from a holding potential of 0 mV every 4 s. […] Inward and outward currents were analyzed from the ramps at −80 and 80 mV, respectively. […]
(§3) Solutions were switched using a gravity-fed continuous focal perfusion system. […] Temperatures were confirmed using a thermistor (Warner Instruments, TA-29), with temperatures at the recorded cell estimated to be within +/−2° C. of those reported. […]

[5] = biological target: T1, hTRPV3 (Homo sapiens, UniProt Q8NET8); test: Patch clamp selectivity, hTRPV3; type: cell-based; conditions: same procedure as Example 3; species not given; read-out: IC50 in Patch Clamp Assay, TrpV3
T1 sequence (Q8NET8 1-790): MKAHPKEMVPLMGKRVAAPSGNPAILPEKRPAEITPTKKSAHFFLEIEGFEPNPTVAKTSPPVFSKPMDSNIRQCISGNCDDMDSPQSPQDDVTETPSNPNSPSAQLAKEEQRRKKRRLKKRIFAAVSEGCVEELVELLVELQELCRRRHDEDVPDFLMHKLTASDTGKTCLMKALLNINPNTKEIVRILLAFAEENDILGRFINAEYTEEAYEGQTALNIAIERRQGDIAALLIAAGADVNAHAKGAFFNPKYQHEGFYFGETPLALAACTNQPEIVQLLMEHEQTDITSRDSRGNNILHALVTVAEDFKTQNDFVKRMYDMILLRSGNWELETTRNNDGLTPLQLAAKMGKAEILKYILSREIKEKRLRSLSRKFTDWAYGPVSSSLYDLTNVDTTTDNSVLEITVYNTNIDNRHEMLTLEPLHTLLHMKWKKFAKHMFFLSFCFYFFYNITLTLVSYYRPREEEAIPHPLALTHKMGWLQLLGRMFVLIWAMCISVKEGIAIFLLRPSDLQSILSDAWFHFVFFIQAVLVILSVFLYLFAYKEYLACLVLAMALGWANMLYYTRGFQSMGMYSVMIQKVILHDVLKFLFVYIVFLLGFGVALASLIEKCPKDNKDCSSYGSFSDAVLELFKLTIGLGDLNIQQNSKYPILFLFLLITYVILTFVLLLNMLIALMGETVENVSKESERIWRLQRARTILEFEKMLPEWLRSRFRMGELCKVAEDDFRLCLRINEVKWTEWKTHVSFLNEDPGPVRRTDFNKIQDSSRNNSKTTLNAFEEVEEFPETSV
Description: as §1, §2, §3

[6] = biological target: hERG (Homo sapiens, UniProt Q12809); test: Patch clamp selectivity, hERG; type: cell-based; conditions: same procedure as Example 3
Sequence of hERG (Q12809 whole entry): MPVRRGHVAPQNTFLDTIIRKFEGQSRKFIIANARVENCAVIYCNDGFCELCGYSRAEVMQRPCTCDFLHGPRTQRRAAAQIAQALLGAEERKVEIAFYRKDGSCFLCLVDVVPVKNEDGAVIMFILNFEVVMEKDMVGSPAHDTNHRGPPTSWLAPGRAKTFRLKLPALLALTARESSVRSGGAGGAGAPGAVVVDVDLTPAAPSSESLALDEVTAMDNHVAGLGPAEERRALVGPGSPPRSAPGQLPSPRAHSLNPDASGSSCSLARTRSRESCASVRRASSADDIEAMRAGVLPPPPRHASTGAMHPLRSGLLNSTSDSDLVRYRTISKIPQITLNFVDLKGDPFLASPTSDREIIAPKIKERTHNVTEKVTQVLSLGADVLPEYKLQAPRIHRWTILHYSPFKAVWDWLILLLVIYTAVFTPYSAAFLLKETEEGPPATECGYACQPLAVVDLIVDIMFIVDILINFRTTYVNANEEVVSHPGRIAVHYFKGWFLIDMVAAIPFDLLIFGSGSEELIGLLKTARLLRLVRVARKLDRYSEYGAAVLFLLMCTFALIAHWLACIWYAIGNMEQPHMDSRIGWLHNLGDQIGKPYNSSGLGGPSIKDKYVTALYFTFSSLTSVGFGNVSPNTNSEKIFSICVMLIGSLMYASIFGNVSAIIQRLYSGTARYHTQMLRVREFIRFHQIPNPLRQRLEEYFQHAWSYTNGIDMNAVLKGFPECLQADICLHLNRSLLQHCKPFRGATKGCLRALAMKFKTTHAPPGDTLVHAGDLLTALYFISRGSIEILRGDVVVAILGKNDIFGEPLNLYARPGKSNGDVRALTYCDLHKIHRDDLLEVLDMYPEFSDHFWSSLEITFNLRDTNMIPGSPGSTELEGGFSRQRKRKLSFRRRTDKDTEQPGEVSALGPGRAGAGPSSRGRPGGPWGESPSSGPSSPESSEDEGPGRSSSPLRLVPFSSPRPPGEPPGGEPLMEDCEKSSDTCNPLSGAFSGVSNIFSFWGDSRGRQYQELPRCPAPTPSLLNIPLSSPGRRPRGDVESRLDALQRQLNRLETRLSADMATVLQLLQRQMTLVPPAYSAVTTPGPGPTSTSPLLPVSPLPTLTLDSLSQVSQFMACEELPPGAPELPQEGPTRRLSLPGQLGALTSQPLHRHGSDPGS
Description: as §1, §2, §3

[7] = biological target: hNav1.2 (Homo sapiens, UniProt Q99250); test: Patch clamp selectivity, hNav1.2; type: cell-based; conditions: same procedure as Example 3; species not given; read-out: IC50 in Patch Clamp Assay, NaV1.2
Sequence of hNav1.2 (Q99250 whole entry): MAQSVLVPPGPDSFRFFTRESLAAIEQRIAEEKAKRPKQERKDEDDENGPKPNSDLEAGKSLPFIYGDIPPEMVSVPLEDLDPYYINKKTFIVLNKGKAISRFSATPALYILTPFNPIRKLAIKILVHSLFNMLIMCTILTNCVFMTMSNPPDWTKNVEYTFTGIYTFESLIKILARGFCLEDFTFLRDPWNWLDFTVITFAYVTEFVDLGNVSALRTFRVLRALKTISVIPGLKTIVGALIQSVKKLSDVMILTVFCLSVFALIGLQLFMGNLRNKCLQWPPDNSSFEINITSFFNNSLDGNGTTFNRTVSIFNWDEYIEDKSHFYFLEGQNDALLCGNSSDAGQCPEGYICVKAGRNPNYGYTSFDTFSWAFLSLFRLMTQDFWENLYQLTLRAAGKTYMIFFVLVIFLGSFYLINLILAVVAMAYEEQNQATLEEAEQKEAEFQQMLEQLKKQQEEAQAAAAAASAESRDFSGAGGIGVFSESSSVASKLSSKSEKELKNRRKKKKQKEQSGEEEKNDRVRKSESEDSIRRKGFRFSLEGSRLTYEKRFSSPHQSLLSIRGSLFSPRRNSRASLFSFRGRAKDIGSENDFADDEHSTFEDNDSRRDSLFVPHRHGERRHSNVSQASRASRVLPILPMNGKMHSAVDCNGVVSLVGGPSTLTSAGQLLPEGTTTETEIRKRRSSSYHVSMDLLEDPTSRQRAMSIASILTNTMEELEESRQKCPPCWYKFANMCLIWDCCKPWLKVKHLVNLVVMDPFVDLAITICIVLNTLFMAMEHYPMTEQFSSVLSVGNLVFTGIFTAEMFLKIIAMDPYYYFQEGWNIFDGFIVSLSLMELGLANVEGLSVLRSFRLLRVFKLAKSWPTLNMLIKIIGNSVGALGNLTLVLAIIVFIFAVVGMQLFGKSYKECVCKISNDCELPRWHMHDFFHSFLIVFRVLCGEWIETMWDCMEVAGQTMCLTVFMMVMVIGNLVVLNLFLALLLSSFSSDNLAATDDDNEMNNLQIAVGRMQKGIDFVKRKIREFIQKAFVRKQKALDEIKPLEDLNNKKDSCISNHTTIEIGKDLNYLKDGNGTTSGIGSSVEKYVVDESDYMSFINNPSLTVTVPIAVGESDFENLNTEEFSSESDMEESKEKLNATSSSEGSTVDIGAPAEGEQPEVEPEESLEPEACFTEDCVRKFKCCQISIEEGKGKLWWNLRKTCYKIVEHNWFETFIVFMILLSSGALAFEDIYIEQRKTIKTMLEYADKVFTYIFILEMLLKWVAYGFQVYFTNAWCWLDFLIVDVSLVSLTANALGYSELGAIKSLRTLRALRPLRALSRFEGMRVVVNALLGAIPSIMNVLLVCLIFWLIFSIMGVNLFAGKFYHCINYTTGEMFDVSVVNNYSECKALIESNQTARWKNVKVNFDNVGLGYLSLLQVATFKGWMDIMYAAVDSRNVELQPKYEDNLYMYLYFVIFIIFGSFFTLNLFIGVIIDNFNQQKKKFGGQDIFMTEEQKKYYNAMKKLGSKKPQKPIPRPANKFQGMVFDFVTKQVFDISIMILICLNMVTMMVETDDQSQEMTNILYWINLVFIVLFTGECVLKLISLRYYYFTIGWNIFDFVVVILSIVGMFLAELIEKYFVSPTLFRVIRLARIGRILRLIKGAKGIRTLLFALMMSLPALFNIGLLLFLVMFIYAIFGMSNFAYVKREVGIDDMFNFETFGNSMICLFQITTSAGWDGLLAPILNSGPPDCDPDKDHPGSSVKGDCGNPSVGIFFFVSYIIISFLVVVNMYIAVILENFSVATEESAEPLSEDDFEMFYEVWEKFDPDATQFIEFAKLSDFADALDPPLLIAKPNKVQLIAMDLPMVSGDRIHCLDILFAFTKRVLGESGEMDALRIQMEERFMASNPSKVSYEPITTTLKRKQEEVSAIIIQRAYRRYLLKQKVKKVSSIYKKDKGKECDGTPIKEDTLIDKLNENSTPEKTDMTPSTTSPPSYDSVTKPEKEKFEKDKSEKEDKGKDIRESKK
Description: as §1, §2, §3

SMILES | duration of pain behavior compared with vehicle [1] | serum biomarkers of hepatotoxicity (ALT, AST, ALP, GGT) ([2]; dogs, 50 mg/kg PO) | ALT level elevation ([2]; female beagle dogs) | ALT level elevation ([2]; male dogs) | serum biomarkers of hepatotoxicity [3] | IC50 [4] | IC50 [5] | IC50 [6] | IC50 [7]
CC(C)c1ccc(NC(=O)Cn2cnc3c2c(=O)n(C)c(=O)n3C)cc1 [Formula (II)] | shorter durations of pain behavior than those treated with the vehicle | – | – | – | – | – | – | – | –
C[C@H]1CCCN1c1ccc(-c2csc(NC(=O)Cn3cnc4c3c(=O)n(C)c(=O)n4C)n2)cc1F [Formula (III)] | shorter durations of pain behavior than those treated with the vehicle | did elevate serum biomarkers of hepatotoxicity | up to 130 fold | up to 60 fold | did elevate serum biomarkers of hepatotoxicity | – | – | – | –
C[C@H]1CCCN1c1ncc(-c2cccc(NC(=O)Cn3cnc4[nH]c(=O)n(C)c(=O)c43)n2)cn1 [Formula (IV), reference compound] | – | – | – | – | – | 9.8 µM | > 10 µM | > 20 µM | > 20 µM
